Measurements reported in US8092841B2.

Assays:
TNF-RE tkLuc = assay: Activation of TNF-RE tkLuc reporter (Example 2); assay type: cell-based; conditions: for activation of TNF-RE tkLuc by antiestrogens: in contrast to E2
Excerpt: (§1) Plasmid Construction. […] ERβ mutants were created with QuikChange site-directed mutagenesis kits (Stratagene), by using oligonucleotides containing the mutation. The mutants were sequenced with Sequenase kits (Amersham Pharmacia) to verify the presence of the mutation.

breast cancer [1] = conditions: women at high risk for breast cancer; cited from earlier work
breast cancer [2] = conditions: five years of tamoxifen therapy; cited from earlier work
breast cancer [3] = conditions: among the 5129 women in the raloxifene treatment group, median follow-up of 40 months; cited from earlier work
ERβ [4] = biological target: T1, ERβ (Homo sapiens, UniProt Q92731); conditions: in the presence of ERβ
Excerpt: as §1

ERβ [5] = biological target: T1, ERβ; assay: TNF-RE tkLuc repression, U2OS cells with ERβ; assay type: cell-based; parameters: expressed in transfected cells; host or cells: U2OS (human osteosarcoma)

T1 sequence (Q92731 whole entry): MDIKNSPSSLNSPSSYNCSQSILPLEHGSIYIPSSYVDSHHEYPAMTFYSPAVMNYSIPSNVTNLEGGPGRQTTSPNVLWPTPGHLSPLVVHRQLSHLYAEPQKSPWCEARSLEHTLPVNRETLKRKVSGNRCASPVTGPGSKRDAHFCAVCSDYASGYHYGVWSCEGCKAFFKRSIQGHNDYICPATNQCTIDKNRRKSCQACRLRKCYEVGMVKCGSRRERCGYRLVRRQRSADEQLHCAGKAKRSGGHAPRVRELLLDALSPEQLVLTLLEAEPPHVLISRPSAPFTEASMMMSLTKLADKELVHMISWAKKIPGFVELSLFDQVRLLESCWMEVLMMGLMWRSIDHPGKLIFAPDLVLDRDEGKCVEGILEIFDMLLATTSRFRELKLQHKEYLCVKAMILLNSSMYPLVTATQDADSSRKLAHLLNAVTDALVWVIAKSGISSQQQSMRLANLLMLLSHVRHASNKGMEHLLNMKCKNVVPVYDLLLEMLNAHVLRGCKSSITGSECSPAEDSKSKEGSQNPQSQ

TNF-α
activation of 3 copies of the TNF-RE (−125 to −82) upstream of the tk promoter (TNF-RE tkLuc; TNF-RE tkLuc): 5-10 fold

C[C@]12CC[C@@H]3c4ccc(O)cc4C[C@@H](CCCCCCCCC[S+]([O-])CCCC(F)(F)C(F)(F)F)[C@H]3[C@@H]1CC[C@@H]2O (stereo partly shown) [ICI 182, 780]
activation of TNF-RE tkLuc by antiestrogens (TNF-RE tkLuc): 2 fold

CC/C(=C(\c1ccccc1)c1ccc(OCCN(C)C)cc1)c1ccccc1 [tamoxifen]
reduction of the risk of primary invasive breast cancer (breast cancer [1]): 49% | reduction of mortality from breast cancer (breast cancer [2]): 22% | reduction of the risk of recurrences (breast cancer [2]): 42% | activation of TNF-RE tkLuc by antiestrogens (TNF-RE tkLuc): 2 fold

O=C(c1ccc(OCCN2CCCCC2)cc1)c1c(-c2ccc(O)cc2)sc2cc(O)ccc12 [raloxifene]
activation of TNF-RE tkLuc by antiestrogens (TNF-RE tkLuc): 2 fold | cases of breast cancer (breast cancer [3]): 13 cases

C[C@]12CC[C@@H]3c4ccc(O)cc4CC[C@H]3[C@@H]1CC[C@@H]2O [E2, estradiol]
repression of TNF-α activation of TNF-RE tkLuc (ERβ [4]): 60-80% | repression of TNF-α activation of TNF-RE (ERβ [5]): 100%
